Results as given in patent publication US8669249B2, “Poly (ADP-ribose) polymerase (PARP) inhibitors” (Takeda Pharmaceutical Company Limited, priority 2009, dated 2014).

Biological target: T1, catalytic domain of Human PARP (Homo sapiens, UniProt P09874)
T1 construct: The catalytic domain of Human PARP was cloned and prepared; made in house
Assay: Biacore surface plasmon resonance affinity assay
Format: binding
Conditions: pKD=-log10 KD, KD in mol/L; Biacore T100, 25° C.; read-out: pKD (converted)
Description: Dissociation Constant (KD) from Surface Plasmon Resonance
The catalytic domain of Human PARP was cloned and prepared as described in Kinoshita, et al. FEBS Letters (2006), 556:43-46. Purified enzyme was stored at −80° C. in 25 mM Tris(hydroxymethyl)aminomethane (‘Tris’) pH 7.4, 150 mM NaCl, 2 mM dithiothreitol (DTT) at a concentration of 6 mg/mL.
Biacore affinity assays for test compounds were conducted on a Biacore T100 (GE Healthcare) as follows. A Series S Sensor Chip CM5 (part number BR-1006-68, GE Healthcare) was activated for amide coupling with an Amine Coupling Kit (part number BR-1000-50, GE Healthcare) as described by the manufacturer. The mobile phase buffer consisted of Biacore buffer HBS-P (part number BR-1003-68, GE Healthcare) supplemented with 1% v/v dimethylsulfoxide (DMSO), 0.5 mM Tris(2-carboxyethyl)phosphine hydrochloride (TCEP), and 5 mM MgCl2. Enzyme samples (2 μL/6 mg/mL) stored at −80° C. were diluted to 0.080 mg/mL with 10 mM 4-morpholineethanesulfonic acid (MES) pH 6.5 and then mounted on the activated Biacore CM5 chip at a flow rate of 10 μL/min for 240 seconds. […] Test compounds were diluted 9 times 2-fold serially in mobile phase buffer (listed above) at 1% v/v DMSO final to generate a concentration gradient bracketing their anticipated KDs. Biacore mounted PARP was given a 1 minute exposure (association phase) to various concentrations of test compounds to observe a steady state equilibrium or an on-rate. The exposure was followed with a dissociation phase of 5 minutes. The association and dissociation phases were at a flow rate of 50 μL/min and a temperature of 25° C.
Parameters Rmax (response at saturation) and KD (binding constant) were calculated through a nonlinear least squares fitting of the equation to the data by use of the Biacore T100 analysis software.
Parameter optimization was through a nonlinear least squares analysis of the association phase Response=Rmax*(1−exp(−(kon[cmpd]+koff)*t)) and dissociation phase Response=[…] by use of the Biacore T100 analysis software. The binding constant KD was calculated from the definition KD=koff/kon

T1 sequence (P09874 788-1014 limits assumed): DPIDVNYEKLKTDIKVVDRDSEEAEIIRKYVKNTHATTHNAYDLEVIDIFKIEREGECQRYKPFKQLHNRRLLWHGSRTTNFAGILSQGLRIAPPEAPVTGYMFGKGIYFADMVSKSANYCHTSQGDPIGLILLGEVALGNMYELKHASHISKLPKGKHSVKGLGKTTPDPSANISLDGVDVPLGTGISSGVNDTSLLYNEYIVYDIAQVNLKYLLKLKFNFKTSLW

SMILES | Kd [µM]
CC1Oc2ccc(CN(C)CCc3ccccc3)cc2NC1=O (centres unmarked) [Compound 85, 2-Methyl-6-((methyl(phenethyl)amino)methyl)-2H-benzo[b][1,4]oxazin-3(4H)-one] | 1.26 to 10
CC1Oc2ccc(-c3cccc(C(=O)O)c3)cc2NC1=O (centres unmarked) [Compound 141, 3-(2-methyl-3-oxo-3,4-dihydro-2H-benzo[b][1,4]oxazin-6-yl)benzoic acid] | 1.26 to 10
C[C@H]1Oc2ccc(CN3CCC(c4ccccc4)CC3)cc2NC1=O [Compound 47, (R)-2-Methyl-6-((4-phenylpiperidin-1-yl)methyl)-2H-benzo[b][1,4]oxazin-3(4H)-one] | ≤ 0.01
O=C1COc2ccc(CCN3CCC(c4ccc(F)cc4)CC3)cc2N1 [Compound 130, 6-(2-(4-(4-Fluorophenyl)piperidin-1-yl)ethyl)-2H-benzo[b][1,4]oxazin-3(4H)-one] | 1.26 to 10
O=C1COc2ccc(C(=O)Nc3ccccc3)cc2N1 [Compound 110, 3-Oxo-N-phenyl-3,4-dihydro-2H-benzo[b][1,4]oxazine-6-carboxamide] | ≥ 100
O=C1COc2ccc(CNC3CCCCC3)cc2N1 [Compound 28, 6-((Cyclohexylamino)methyl)-2H-benzo[b][1,4]oxazin-3(4H)-one] | 12.6 to 79.4
COC(=O)CN1CCN(Cc2ccc3c(c2)NC(=O)C(C)O3)CC1=O (centres unmarked) [Compound 78, Methyl 2-(4-((2-methyl-3-oxo-3,4-dihydro-2H-benzo[b][1,4]oxazin-6-yl)methyl)-2-oxopiperazin-1-yl)acetate] | 1.26 to 10
O=C1Nc2cc(CN3CCN(c4nc5ccccc5[nH]4)CC3)ccc2OC1F (centres unmarked) [Compound 99, 6-((4-(1H-Benzo[d]imidazol-2-yl)piperazin-1-yl)methyl)-2-fluoro-2H-benzo[b][1,4]oxazin-3(4H)-one] | 0.126 to 1
CC1Oc2ccc(CN3CCC(c4cccc(C(=O)O)c4)CC3)cc2NC1=O (centres unmarked) [Compound 215, 3-(1-((2-Methyl-3-oxo-3,4-dihydro-2H-benzo[b][1,4]oxazin-6-yl)methyl)piperidin-4-yl)benzoic acid] | ≥ 100
CC1Oc2ccc(CN3CCC(c4ccccc4N)CC3)cc2NC1=O (centres unmarked) [Compound 211, 6-((4-(2-Aminophenyl)piperidin-1-yl)methyl)-2-methyl-2H-benzo[b][1,4]oxazin-3(4H)-one] | ≥ 100
CC(=O)Nc1cccc(-c2ccc3c(c2)NC(=O)C(C)O3)c1 (centres unmarked) [Compound 148, N-(3-(2-Methyl-3-oxo-3,4-dihydro-2H-benzo[b][1,4]oxazin-6-yl)phenyl)acetamide] | > 10
CC1Oc2ccc(S(=O)(=O)N3CCC(c4ccccc4)CC3)cc2NC1=O (centres unmarked) [Compound 121, 2-Methyl-6-(4-phenylpiperidin-1-ylsulfonyl)-2H-benzo[b][1,4]oxazin-3(4H)-one] | > 1
CNC(=O)CC1CCN(Cc2ccc3c(c2)NC(=O)C(C)O3)CC1 (centres unmarked) [Compound 182, N-Methyl-2-(1-((2-methyl-3-oxo-3,4-dihydro-2H-benzo[b][1,4]oxazin-6-yl)methyl)piperidin-4-yl)acetamide] | 12.6 to 79.4
CC1Oc2cc(CN3CCCC(c4ccccc4)C3)ccc2NC1=O (centres unmarked) [Compound 95, 2-Methyl-7-((3-phenylpiperidin-1-yl)methyl)-2H-benzo[b][1,4]oxazin-3(4H)-one] | 1.26 to 10
O=C1COc2ccc(CN3CCC(c4ccccc4)CC3)cc2N1 [Compound 25, 6-((4-Phenylpiperidin-1-yl)methyl)-2H-benzo[b][1,4]oxazin-3(4H)-one] | 0.126 to 1
O=C1COc2ccc(C(=O)NCC3CCCCC3)cc2N1 [Compound 108, N-(Cyclohexylmethyl)-3-oxo-3,4-dihydro-2H-benzo[b][1,4]oxazine-6-carboxamide] | ≥ 100
CC1Oc2cc(CN3CCN(c4ccccc4O)CC3)ccc2NC1=O (centres unmarked) [Compound 209, 7-((4-(2-Hydroxyphenyl)piperazin-1-yl)methyl)-2-methyl-2H-benzo[b][1,4]oxazin-3(4H)-one] | 12.6 to 79.4
CCS(=O)(=O)c1ccc2c(c1)NC(=O)C(C)O2 (centres unmarked) [Compound 23, 6-(Ethylsulfonyl)-2-methyl-2H-benzo[b][1,4]oxazin-3(4H)-one] | 12.6 to 79.4
CC1Oc2ccc(CN3CCN(c4nc(-c5ccccc5)ns4)CC3)cc2NC1=O (centres unmarked) [Compound 39, 2-Methyl-6-((4-(3-phenyl-1,2,4-thiadiazol-5-yl)piperazin-1-yl)methyl)-2H-benzo[b][1,4]oxazin-3(4H)-one] | > 10

SMILES | Kd [µM]
CNC(=O)c1cccc(-c2ccc3c(c2)NC(=O)C(C)O3)c1 (centres unmarked) [Compound 143, N-Methyl-3-(2-methyl-3-oxo-3,4-dihydro-2H-benzo[b][1,4]oxazin-6-yl)benzamide] | > 10
Cc1ccc(C2CCN(Cc3ccc4c(c3)NC(=O)C(C)O4)CC2)cc1 (centres unmarked) [Compound 36, 2-Methyl-6-((4-p-tolylpiperidin-1-yl)methyl)-2H-benzo[b][1,4]oxazin-3(4H)-one] | 0.126 to 1
O=C1COc2ccc(CCN3CCN(c4nc5ccccc5[nH]4)CC3)cc2N1 [Compound 129, 6-(2-(4-(1H-Benzo[d]imidazol-2-yl)piperazin-1-yl)ethyl)-2H-benzo[b][1,4]oxazin-3(4H)-one] | 12.6 to 79.4
CC(=O)Nc1ccc2c(c1)CN(Cc1ccc3c(c1)NC(=O)C(C)O3)C2 (centres unmarked) [Compound 242, N-(2-((2-Methyl-3-oxo-3,4-dihydro-2H-benzo[b][1,4]oxazin-6-yl)methyl)isoindolin-5-yl)acetamide] | 1.26 to 10
CC1Oc2ccc(-c3ccc(C(N)=O)cc3)cc2NC1=O (centres unmarked) [Compound 150, 4-(2-Methyl-3-oxo-3,4-dihydro-2H-benzo[b][1,4]oxazin-6-yl)benzamide] | > 10
CC1Oc2ccc(CN3CCC(CCO)CC3)cc2NC1=O (centres unmarked) [Compound 87, 6-((4-(2-Hydroxyethyl)piperidin-1-yl)methyl)-2-methyl-2H-benzo[b][1,4]oxazin-3(4H)-one] | 1.26 to 10
CCC1Oc2ccc(CN3CCC(c4nc5ccccc5[nH]4)CC3)cc2NC1=O (centres unmarked) [Compound 196, 6-((4-(1H-Benzo[d]imidazol-2-yl)piperidin-1-yl)methyl)-2-ethyl-2H-benzo[b][1,4]oxazin-3(4H)-one] | ≥ 100
CC1Oc2ccc(S(=O)(=O)N3CCCC3)cc2NC1=O (centres unmarked) [Compound 120, 2-Methyl-6-(pyrrolidin-1-ylsulfonyl)-2H-benzo[b][1,4]oxazin-3(4H)-one] | ≥ 100
CC1Oc2cc(CN3CCN(c4ccncc4)CC3)ccc2NC1=O (centres unmarked) [Compound 202, 2-Methyl-7-((4-(pyridin-4-yl)piperazin-1-yl)methyl)-2H-benzo[b][1,4]oxazin-3(4H)-one] | ≥ 100
CC1Oc2ccc(CN(C)Cc3ccc(F)cc3)cc2NC1=O (centres unmarked) [Compound 73, 6-(((4-Fluorobenzyl)(methyl)amino)methyl)-2-methyl-2H-benzo[b][1,4]oxazin-3(4H)-one] | 1.26 to 10
CC1Oc2ccc(CN3Cc4ccc(F)cc4C3)cc2NC1=O (centres unmarked) [Compound 241, 6-((5-Fluoroisoindolin-2-yl)methyl)-2-methyl-2H-benzo[b][1,4]oxazin-3(4H)-one] | ≤ 0.01
CCOC(=O)CN1CCN(Cc2ccc3c(c2)NC(=O)C(C)O3)CC1 (centres unmarked) [Compound 102, Ethyl 2-(4-((2-methyl-3-oxo-3,4-dihydro-2H-benzo[b][1,4]oxazin-6-yl)methyl)piperazin-1-yl)acetate] | 1.26 to 10
CC1Oc2ccc(CN3CCc4ccccc4C3)cc2NC1=O (centres unmarked) [Compound 76, 6-((3,4-Dihydroisoquinolin-2(1H)-yl)methyl)-2-methyl-2H-benzo[b][1,4]oxazin-3(4H)-one] | 0.126 to 1
CCc1ccc2c(c1)NC(=O)CO2 [Compound 122, 6-Ethyl-2H-benzo[b][1,4]oxazin-3(4H)-one] | ≥ 100
O=C1COc2ccc(S(=O)(=O)N3CCOCC3)cc2N1 [Compound 116, 6-(Morpholinosulfonyl)-2H-benzo[b][1,4]oxazin-3(4H)-one] | 12.6 to 79.4
CC1Oc2cc(CN3CCC(c4nc5ccccc5[nH]4)CC3)ccc2NC1=O (centres unmarked) [Compound 203, 7-((4-(1H-Benzo[d]imidazol-2-yl)piperidin-1-yl)methyl)-2-methyl-2H-benzo[b][1,4]oxazin-3(4H)-one] | ≥ 100
CC1Oc2ccc(CN3CCCc4cc(O)ccc43)cc2NC1=O (centres unmarked) [Compound 84, 6-((6-Hydroxy-3,4-dihydroquinolin-1(2H)-yl)methyl)-2-methyl-2H-benzo[b][1,4]oxazin-3(4H)-one] | > 10
CC1Oc2ccc(CN3CCN(Cc4cccc(Br)c4)CC3)cc2NC1=O (centres unmarked) [Compound 43, 6-((4-(3-Bromobenzyl)piperazin-1-yl)methyl)-2-methyl-2H-benzo[b][1,4]oxazin-3(4H)-one] | 1.26 to 10
O=C1COc2ccc(CCN3CCC(c4ccc(Cl)cc4)CC3)cc2N1 [Compound 131, 6-(2-(4-(4-Chlorophenyl)piperidin-1-yl)ethyl)-2H-benzo[b][1,4]oxazin-3(4H)-one] | 1.26 to 10
